In a melting point compilation (Tetko et al.; mined from patent text by program, amines drawn as free bases though some values may be those of a salt):

SMILES	melting point [°C]
COc1cc(C=O)cc(OC)c1OCCO	69 to 70
COc1c(C#N)cc([N+](=O)[O-])cc1C#N	144 to 148
CC(C)NC1CCCCC1O (centres undefined)	54 to 55
CCCc1c(OCCCOc2ccc3c(c2CCC)OC(C)(CCC(=O)O)CC3=O)ccc(C(C)=O)c1O (centres undefined)	80 to 83
Nc1scc2c1C(=O)c1c-2ccc(Cl)c1Cl	254 to 255
CC(C)(C)c1ccccc1N1CCN(C(=O)c2ncoc2CCC(=O)O)CC1	180 to 181
CSc1ccccc1C(=N)N1CCN(CCc2cc3c(cc2Cl)NC(=O)C3)CC1	103 to 106
OCC/C(CCCCCCCCS)=C(\CCO)CCCCCCCCS	67.4 to 68.2
CCNC(=O)c1c(Cl)cccc1N(C)C(C)(C)C	106 to 108
CCc1c(CCN2CCC(c3noc4cc(F)ccc34)CC2)sc2c1NC(=O)CCC2	115 to 117
Cc1c(Br)c(C)c2c(OS(=O)(=O)C(F)(F)F)coc2c1C	54 to 55
c1ccc(C(NC23CC4CC(C2)CC(OCc2ccc(-c5nc6ccccc6o5)cc2)(C4)C3)(c2ccccc2)c2ccccc2)cc1	174 to 177
COc1cc(OC)c2ccsc2c1	78 to 80
O=[N+]([O-])c1cc(Cl)c(C=CN2CCN(c3nsc4ccccc34)CC2)cc1Cl	194 to 195
O=C1N=C(c2ccccc2OCC2CC2)N=C2N=CN=C12	259 to 260
Cc1ncnc(O)c1Cl	250 to 251
CCCCCCCCCCS(=O)(=O)N[C@H]1CCCNC(=O)C1	98 to 99
Cc1cc(NS(C)(=O)=O)cc(C)c1S(=O)(=O)C[N+](=O)[O-]	138 to 140
CCCCCCOc1nc(O)ns1	61
CN(C)C=NC(=N[N+](=O)[O-])NC1CC1	120 to 122
O=C(CCn1cnc2c(=O)[nH]cnc21)NC1CCSC1=O (centres undefined)	228 to 230
CC(C)(CC(O)(C(=O)Nc1ccc([N+](=O)[O-])c(C(F)(F)F)c1)C(F)(F)F)c1ccccc1 (centres undefined)	119 to 120
CS(=O)(=O)c1ccc(-c2cnn(CC(F)(F)F)c(=O)c2SC2CCCC2)cc1	149 to 151

SMILES	melting point [°C]
O=C(Nc1nn[nH]n1)c1cnc(N2CCOCC2)nc1OC1CCCCCC1	287
CSc1nc2ccc(CCc3nc4cc(C)ccn4c3C)cc2o1	106 to 107
C=Cc1cnc([N+](=O)[O-])n1CC	45 to 47
CCOc1ccccc1N1CCN(CCCC2CN(C)C(=O)O2)CC1 (centres undefined)	79 to 81
CCN[C@@H]1CN(C(=O)c2nn(C)c3ccccc23)C[C@@H]1C (relative stereo)	62 to 64
COc1cc(OC)nc(NC(=O)NS(=O)(=O)c2sc(Cl)c3c2C(=O)OCC3)n1	110 to 114
COc1cc(-c2csc(C#N)n2)cc(Cl)c1OC	147 to 149
O=C(O)c1nc2cc(-n3ccnc3)c([N+](=O)[O-])cc2[nH]c1=O	> 300
COC(=S)NC1(N=NC(C)(C)C)CCCCC1	79 to 82
NCCCCCCCCNc1nc(N)nc2c1ncn2C1C=CC(CO)C1 (centres undefined)	125 to 127
Cn1cc(C(=O)NCc2ccc(Cl)cc2)c(=O)c2cc(CN3CCOCC3)cc(C#CCn3cnc(Cl)c3Cl)c21	178 to 181
Cc1ccc(-c2c(NS(=O)(=O)c3ccc(C(C)(C)C)cc3)nc(NCCOC3CCCCO3)nc2OCCOc2ncc(Br)cn2)cc1 (centres undefined)	65 to 69
O=c1c2ccc(-c3nnn[nH]3)cc2[nH]c2ccc(-c3nnn[nH]3)cc12	> 350
Cc1sc2c(c1CCN1CCC(c3noc4cc(F)ccc34)CC1)CCNC2	88 to 90
O=C(COCc1cccs1)C12CC3CC(CC(C3)C1)C2	57.2 to 58.3
Cc1nnc(CO)n1-c1ccc(Cl)cc1C(=O)c1ccccc1	138 to 142
CCc1c(C(=O)OC(C)C)ncc2[nH]c3ccc4nc(C)sc4c3c12	239 to 240
CCCc1nc2c(N)nc3cc(OC4CCOC4)ccc3c2n1CC(C)C (centres undefined)	178 to 182
CN1CCC(c2n[nH]c3ccc(F)cc23)CC1	202 to 204
CC(C)N1Cc2cccc(F)c2N(CCN2CC=C(c3c[nH]c4cc(F)ccc34)CC2)S1(=O)=O	199 to 201
c1ccc2c(c1)Cn1ccnc1CN2	164 to 170
O=C1N=NN=C2N=CN=C12	230 to 234

More lines, now with the values ahead:

melting point [°C]	SMILES
195 to 196	CC(=O)Nc1c(C(=O)c2cccc(C)n2)[nH]c2cc(Cl)ccc12
245 to 246	O=C(O)c1cn(-c2cccs2)c2cc(F)c(F)cc2c1=O
99 to 100	C[C@H](C#Cc1sccc1Cc1ccc(F)cc1)N(O)C(N)=O
130 to 135	CCOc1ccccc1N(C[C@H]1CCC[C@H](CN(C(=O)Nc2ccc(N(C)C)cc2)c2ccccc2OCC)C1)C(=O)Nc1ccc(N(C)C)cc1 (relative stereo)
124 to 125	CCCCCCCCCCCCS(=O)(=O)NN(C(=O)c1ccccc1)c1cc(Cl)c(C)cc1O
110 to 111	N#Cc1ccc(C(=O)OC2CCN(Cc3ccccc3)CC2)cc1
68 to 70	Cc1ccc(S(=O)(=O)OCC2CCN(C(=O)c3cccc(C)c3)CC2)cc1
176 to 179	COc1ccc(/C=C/CNc2cccc(-c3ccnc4c(C(=O)c5cccs5)cnn34)c2)cc1
92 to 100	Cc1ccc(C(=O)CC(O)C(=O)O)cc1 (centres undefined)
111 to 113	COc1ccc(Cc2oc3c(c2C)C(=O)C(C)=C(C)C3=O)cc1
95 to 97	COC(=O)CCCCNC(=O)C(COS(C)(=O)=O)NS(=O)(=O)c1ccc(Cl)cc1 (racemic)
141 to 142	CC(C)Cn1c(CNC(=O)OC(C)(C)C)c(-c2ccccc2)c2cc(OCc3ccccc3)ccc2c1=O
87	CC(Oc1ccc2nc(NC(=O)NCCN3CCN(C(=O)OC(C)(C)C)CC3)sc2c1)c1c(Cl)ccc(F)c1Cl (centres undefined)
110	Oc1cccc(-c2nc3ccccc3s2)c1
153 to 155	CC(=O)NC1=C(N2CCN(Cc3ccccc3)CC2)C(=O)c2ccccc2C1=O
157 to 160	O=C1C(c2cc3c(cc2O)OCCO3)c2ccccc2N1C(c1ccccc1)c1ccccc1 (centres undefined)
150 to 152	CCc1cccc(N(C(=O)CCC(=O)O)c2cc(C(C)(C)C)c(O)c(C(C)(C)C)c2)c1
224 to 225	O=C(c1ccc(Cl)cc1)N(c1ccccc1)c1ccc(O)cc1
123 to 125	OCC(O)Cc1nccn1CCCCc1ccc(OCc2coc(/C=C/c3c(F)cccc3F)n2)cc1 (centres undefined)
115 to 119	CCCCc1ccc(NCCS(=O)(=O)NCCCOc2cccc(CN3CCCCC3)c2)cc1
167 to 169	FC(F)(F)c1cnc2nc1Nc1cccc(c1)/C=C\c1cccc(c1)N2
190 to 191	CCCc1nc2c(N)nc3cc(Oc4ccc(N)cc4)ccc3c2n1CC(C)C
123 to 124	COCCOc1ccc(CCCOC(=O)NS(=O)(=O)NCCC(C)C)c(Oc2ncc(C(F)(F)F)cc2Cl)c1
212	Cc1ccc(S(=O)(=O)Nc2coc3ccccc3c2=S)cc1
115 to 117	COc1cc(CCNC(=O)[C@@H](N)C(C)C)ccc1OCC#Cc1ccc(Cl)cc1
208	COc1ccc(C(=O)Nc2ccc3ccc(Oc4ccccc4F)nc3n2)cc1
110 to 112	CCCC(=O)c1cnc2cc(COC(=O)c3ccccc3)ccc2c1Nc1ccccc1C

melting point [°C]	SMILES
149 to 150	c1cc(-c2ccoc2)cc(-n2cnc3cc(-c4ccoc4)ccc32)c1
69 to 82.3	COCc1cnc(NC(=O)C(Cc2ccc(F)cc2)c2ccc(S(C)(=O)=O)cc2)cn1 (centres undefined)
179 to 180	Fc1cc(F)cc(Cn2c(S)nc3ccccc32)c1
62 to 64	O=[N+]([O-])c1ccccc1N1CCc2ccccc21
154 to 156	CN(CCOc1ccc(CC(S)C(=O)O)cc1)c1nc2ccccc2o1 (centres undefined)
143 to 144	COc1nnc(-c2ccc3occ(-c4ccc(OC(F)(F)F)cc4)c3c2)o1
140 to 145	O=C=NC(=O)SCc1ccccc1
146 to 147	CNC(=O)c1cccc(NC(=O)Cc2cc(OC)cc(OC)c2)c1
140 to 142	Cn1cc(-c2cccc(N3CCc4c(sc5c4CCCC5)C3=O)c2CO)cc(Nc2ccc(C3CNC3)cn2)c1=O
291 to 292	CC1(C)CCC(C)(C)c2cc3sc(-c4ccc(C(=O)O)cc4)cc3cc21
163 to 164	Cc1oc(-c2ccc3ccccc3c2)nc1COc1ccc(C=O)cc1
133 to 135	COc1ccc(-c2nc(CNC(=O)c3ccc4n3Cc3ccccc3N(C(=O)c3ccc(-c5ccccc5C)c(C)c3)C4)no2)cc1
203 to 206	Cc1cc(C)nc(NC(=O)NS(=O)(=O)c2cccc3c2OC(C)(C)C3)n1
54 to 55	COC(=O)c1cc(C)c(C)cc1C(=O)OC
60 to 65	Cn1cc2ccc(F)cc2c1
206	CC(C(N)=O)C(=O)Nc1ccc(OCc2cccc(F)c2)cc1 (centres undefined)
126 to 128	CCOC(=O)C(Cc1ccc(OC)c(OC)c1)NC(=O)c1ccc(OC(C)C)cc1 (centres undefined)
221	COC(=O)c1ccc(/C=C/C(=O)O)c(Cl)c1
120 to 125	CCOC(=O)C1=Cc2cccc(C(N)=O)c2OCC1
137 to 139	COCc1cn(-c2cccc(C(F)(F)F)c2)nc(-c2ccnn2-c2ccccc2)c1=O
122	COCc1ccc(Cl)c(C2(C)C(=O)N(Cc3ccc(OC)cc3OC)c3ccc(Cl)cc32)c1 (centres undefined)
92 to 98	COc1cc(I)c(Cl)cc1C(=O)N1Cc2cccn2Cc2ccccc21
215 to 217	CCCCNC(=O)c1ccc(S(=O)(=O)NC(=O)c2ccc(C(=O)NCC(=O)OC)nc2)cc1
60	COc1ccc(OC[C@@H](O)CNCCc2ccc(NC3SC(=O)NC3=O)cc2)cc1 (some centres undefined)
209 to 210	COc1ccc(Oc2cccc3ncnc(NC(=O)Nc4cccc(OC)c4)c23)cc1
160 to 163	ON(Cc1ccccc1)Cc1ccc(CN(O)Cc2ccccc2)cc1
159 to 162	CCOC(=O)C(=Cc1c[nH]c2cc(C)ccc12)NC(C)=O
